From patent US5696083A, “Personal care composition containing pyrithione and polymyxin” (Olin Corporation, priority 1994, dated 1997)

Columns and labels:
Test in all cases: MIC in Tryptic Soy Broth, compounds alone and in mixtures
Format in all cases: cell-based
Fusarium sp. = conditions: 28° C.
Text: (§1) ^a Compounds were serially diluted in Tryptic soy Broth (DIFCO),
(§2) ^b Each dilution contained 10^6 bacteria/ml of 10^5 fungi/ml.
(§3) ^a Stock solutions of ZP in dimethylsulfoxide and PB in sterile water

Aureobasidium pullulans = conditions: 28° C.; for Minimum Inhibitory Concentration, Compound Used Alone: Tryptic Soy Broth
Experimental: (§4) Determinations of minimum inhibitory concentrations (MIC's) of the two compounds (pyrithione salts and/or polymyxin sulfate) in a nutrient broth (alone and in mixtures) were conducted to evaluate interactions. Stock solutions of pyrithione salts and/or polymyxin salts were diluted in Tryptic Soy Broth (Difco), and the dilutions were inoculated with an equal volume of bacterial culture (10^6 /ml) or fungal spore suspension (10^5 /ml) in Tryptic Soy Broth and incubated at 28° C. for 3-7 days.
(§5) The interactions of the antimicrobials were determined according to accepted procedures (M. C. Berenbaum [Tables 1 and 2] and P. F. Dougherty "Microdilution Transfer Plate Technique for Determining In Vitro Synergy of Antimicrobial Agents", ANTIMICROBIAL AGENTS AND CHEMOTHERAPY, Vol. 11, No. 2, p. 225-228 (Feb. 1977, American Society for Microbiology) [Tables 3 and 4]). The concentration of each agent in the combination that inhibits the organisms is expressed as a fraction of the concentration that causes the same effect when the same agent is tested alone (i.e., its fractional inhibitory concentration, FIC). If the sum of the FIC's is 1, the combination is additive in its antimicrobial effect; if the sum is <1, the combination is synergistic; and if the sum is >1, the combination is antagonistic.
as §1, §2, §3

[1] = test system: Trichophyton mentagrophytes; conditions: 28° C.; for Minimum Inhibitory Concentration, Compound Used Alone: Tryptic Soy Broth
Experimental: as §4, §5, §1, §2, §3

Pseudomonas aeruginosa = conditions: 28° C.; for Minimum Inhibitory Concentration, Compound Used Alone: Tryptic Soy Broth
Experimental: as §4, §5, §1, §2, §3

Pseudomonas Stutzeri = conditions: 28° C.; for Minimum Inhibitory Concentration, Compound Used Alone: Tryptic Soy Broth
Experimental: as §4, §5, §1, §2, §3

Cephalosporium sp. = conditions: 28° C.; for Minimum Inhibitory Concentration, Compound Used Alone: Tryptic Soy Broth
Experimental: as §4, §5, §1, §2, §3

Alcaligens faecalis = conditions: 28° C.; for Minimum Inhibitory Concentration, Compound Used Alone: Tryptic Soy Broth
Experimental: as §4, §5, §1, §2, §3

Aspergillus niger = conditions: 28° C.; for Minimum Inhibitory Concentration, Compound Used Alone: Tryptic Soy Broth
Experimental: as §4, §5, §1, §2, §3

Pseudomonas rubescens = conditions: 28° C.; for Minimum Inhibitory Concentration, Compound Used Alone: Tryptic Soy Broth
Experimental: as §4, §5, §1, §2, §3

Chaetomium globosium = conditions: 28° C.; for Minimum Inhibitory Concentration, Compound Used Alone: Tryptic Soy Broth
Experimental: as §4, §5, §1, §2, §3

Pseudomonas oleovorans = conditions: 28° C.; for Minimum Inhibitory Concentration, Compound Used Alone: Tryptic Soy Broth
Experimental: as §4, §5, §1, §2, §3

Penicillin pinophilium = conditions: 28° C.; for Minimum Inhibitory Concentration, Compound Used Alone: Tryptic Soy Broth
Experimental: as §4, §5, §1, §2, §3

Candida albicans = conditions: 28° C.; for Minimum Inhibitory Concentration, Compound Used Alone: Tryptic Soy Broth
Experimental: as §4, §5, §1, §2, §3

Citrobacter freundii = conditions: 28° C.; for Minimum Inhibitory Concentration, Compound Used Alone: Tryptic Soy Broth
Experimental: as §4, §5, §1, §2, §3

Gliocladium virens = conditions: 28° C.; for Minimum Inhibitory Concentration, Compound Used Alone: Tryptic Soy Broth
Experimental: as §4, §5, §1, §2, §3

Fusarium solani = conditions: 28° C.; for Minimum Inhibitory Concentration, Compound Used Alone: Tryptic Soy Broth
Experimental: as §4, §5, §1, §2, §3

Pseudomonas fluorescens = conditions: 28° C.; for Minimum Inhibitory Concentration, Compound Used Alone: Tryptic Soy Broth
Experimental: as §4, §5, §1, §2, §3

Proteus mirabilis = conditions: 28° C.; for Minimum Inhibitory Concentration, Compound Used Alone: Tryptic Soy Broth
Experimental: as §4, §5, §1, §2, §3

[2] = Table 1, concentration of the component in SP+PB mixture, SP/PB ratio 1, 6-7 days
[3] = Table 1, 6-7 days, PB sulfate 7610 units/mg
[4] = Table 1, concentration of the component in SP+PB mixture, SP/PB ratio 1/20-1/10, 6-7 days
[5] = Table 2, 7 days, PB sulfate 7730 units/mg
[6] = Table 1, 3 days, PB sulfate 7610 units/mg
[7] = Table 2, 6 days, PB sulfate 7730 units/mg
[8] = Table 2, concentration of the component in ZP+PB mixture, ZP/PB ratio 1/32-1/8, 7 days
[9] = Table 1, concentration of the component in SP+PB mixture, SP/PB ratio 650, 3 days
[10] = Table 2, concentration of the component in ZP+PB mixture, ZP/PB ratio 1/8-1, 7 days

Substance: Polymyxin B sulfate [PB]
- Minimum Inhibitory Concentration, Mixture (Fusarium sp.; [2]): 32.0 ppm
- Minimum Inhibitory Concentration, Compound Used Alone (Fusarium sp.; Table 2, alone, Tryptic Soy Broth, 7 days, PB sulfate 7730 units/mg): 106.7 ppm
- Minimum Inhibitory Concentration, Compound Used Alone (Aureobasidium pullulans; [3]): 256.0 ppm
- Minimum Inhibitory Concentration, Mixture (Aureobasidium pullulans; [4]): 48.0 ppm
- Minimum Inhibitory Concentration, Compound Used Alone (Aureobasidium pullulans; [5]): 288.0 ppm
- Minimum Inhibitory Concentration, Mixture (Aureobasidium pullulans; Table 2, concentration of the component in ZP+PB mixture, ZP/PB ratio 1/32-1/16, 7 days): 80.0 ppm
- Minimum Inhibitory Concentration, Compound Used Alone [1, 3]: 32.0 ppm
- Minimum Inhibitory Concentration, Mixture ([1]; Table 1, concentration of the component in SP+PB mixture, SP/PB ratio 1/10-1/3, 6-7 days): 26.7 ppm
- Minimum Inhibitory Concentration, Compound Used Alone [1, 5]: 53.0 ppm
- Minimum Inhibitory Concentration, Mixture ([1]; Table 2, concentration of the component in ZP+PB mixture, ZP/PB ratio 1/4-1/2, 7 days): 26.7 ppm
- Minimum Inhibitory Concentration, Compound Used Alone (Pseudomonas aeruginosa; [6]): 0.7 ppm
- Minimum Inhibitory Concentration, Mixture (Pseudomonas aeruginosa; Table 1, concentration of the component in SP+PB mixture, SP/PB ratio 163-325, 3 days): 0.3 ppm
- Minimum Inhibitory Concentration, Compound Used Alone (Pseudomonas aeruginosa; [7]): 1.0 ppm
- Minimum Inhibitory Concentration, Mixture (Pseudomonas aeruginosa; Table 2, concentration of the component in ZP+PB mixture, ZP/PB ratio 128-256, 6 days): 0.5 ppm
- Minimum Inhibitory Concentration, Compound Used Alone (Pseudomonas Stutzeri; [6]): 0.3 ppm
- Minimum Inhibitory Concentration, Mixture (Pseudomonas Stutzeri; Table 1, concentration of the component in SP+PB mixture, SP/PB ratio 325-650, 3 days): 0.1 ppm
- Minimum Inhibitory Concentration, Compound Used Alone (Pseudomonas Stutzeri; [7]): 0.3 ppm
- Minimum Inhibitory Concentration, Mixture (Pseudomonas Stutzeri; Table 2, concentration of the component in ZP+PB mixture, ZP/PB ratio 16-128, 6 days): < 0.1 ppm
- Minimum Inhibitory Concentration, Compound Used Alone (Cephalosporium sp.; [3]): 256.0 ppm
- Minimum Inhibitory Concentration, Mixture (Cephalosporium sp.; [2]): 12.0 ppm
- Minimum Inhibitory Concentration, Compound Used Alone (Cephalosporium sp.; [5]): 170.7 ppm
- Minimum Inhibitory Concentration, Mixture (Cephalosporium sp.; Table 2, concentration of the component in ZP+PB mixture, ZP/PB ratio 1/16-1/8, 7 days): 42.7 ppm
- Minimum Inhibitory Concentration, Compound Used Alone (Alcaligens faecalis; [6]): 1.4 ppm
- Minimum Inhibitory Concentration, Mixture (Alcaligens faecalis; Table 1, concentration of the component in SP+PB mixture, SP/PB ratio 5-41, 3 days): 0.5 ppm
- Minimum Inhibitory Concentration, Compound Used Alone (Alcaligens faecalis; [7]): 3.3 ppm
- Minimum Inhibitory Concentration, Mixture (Alcaligens faecalis; Table 2, concentration of the component in ZP+PB mixture, ZP/PB ratio 8-32, 6 days): 0.6 ppm
- Minimum Inhibitory Concentration, Compound Used Alone (Aspergillus niger; [3]): 1536.0 ppm
- Minimum Inhibitory Concentration, Mixture (Aspergillus niger; Table 1, concentration of the component in SP+PB mixture, SP/PB ratio 1/10, 6-7 days): 256.0 ppm
- Minimum Inhibitory Concentration, Compound Used Alone (Aspergillus niger; [5]): 1024.0 ppm
- Minimum Inhibitory Concentration, Mixture (Aspergillus niger; [8]): 298.7 ppm
- Minimum Inhibitory Concentration, Compound Used Alone (Pseudomonas rubescens; [6]): < 0.1 ppm
- Minimum Inhibitory Concentration, Mixture (Pseudomonas rubescens; [9]): < 0.1 ppm
- Minimum Inhibitory Concentration, Compound Used Alone (Pseudomonas rubescens; [7]): < 0.1 ppm
- Minimum Inhibitory Concentration, Mixture (Pseudomonas rubescens; Table 2, concentration of the component in ZP+PB mixture, ZP/PB ratio 256, 6 days): < 0.1 ppm
- Minimum Inhibitory Concentration, Compound Used Alone (Chaetomium globosium; [3]): 24.0 ppm
- Minimum Inhibitory Concentration, Mixture (Chaetomium globosium; Table 1, concentration of the component in SP+PB mixture, SP/PB ratio 1/10-1/5, 6-7 days): 16.0 ppm
- Minimum Inhibitory Concentration, Compound Used Alone (Chaetomium globosium; [5]): 85.3 ppm
- Minimum Inhibitory Concentration, Mixture (Chaetomium globosium; [10]): 37.3 ppm
- Minimum Inhibitory Concentration, Compound Used Alone (Pseudomonas oleovorans; [6]): 0.3 ppm
- Minimum Inhibitory Concentration, Mixture (Pseudomonas oleovorans; [9]): < 0.1 ppm
- Minimum Inhibitory Concentration, Compound Used Alone (Pseudomonas oleovorans; [7]): 0.5 ppm
- Minimum Inhibitory Concentration, Mixture (Pseudomonas oleovorans; Table 2, concentration of the component in ZP+PB mixture, ZP/PB ratio 16-32, 6 days): 0.2 ppm
- Minimum Inhibitory Concentration, Compound Used Alone (Penicillin pinophilium; [3]): 256.0 ppm
- Minimum Inhibitory Concentration, Mixture (Penicillin pinophilium; [4]): 48.0 ppm
- Minimum Inhibitory Concentration, Compound Used Alone (Penicillin pinophilium; [5]): 128.0 ppm
- Minimum Inhibitory Concentration, Mixture (Penicillin pinophilium; Table 2, concentration of the component in ZP+PB mixture, ZP/PB ratio 1/8, 7 days): 32.0 ppm
- Minimum Inhibitory Concentration, Compound Used Alone (Candida albicans; [3]): 256.0 ppm
- Minimum Inhibitory Concentration, Mixture (Candida albicans; [4]): 64.0 ppm
- Minimum Inhibitory Concentration, Compound Used Alone (Candida albicans; [5]): 341.3 ppm
- Minimum Inhibitory Concentration, Mixture (Candida albicans; [8]): 74.7 ppm
- Minimum Inhibitory Concentration, Compound Used Alone (Citrobacter freundii; [6]): 0.5 ppm
- Minimum Inhibitory Concentration, Mixture (Citrobacter freundii; Table 1, concentration of the component in SP+PB mixture, SP/PB ratio 41-81, 3 days): 0.1 ppm
- Minimum Inhibitory Concentration, Compound Used Alone (Citrobacter freundii; [7]): 0.4 ppm
- Minimum Inhibitory Concentration, Mixture (Citrobacter freundii; Table 2, concentration of the component in ZP+PB mixture, ZP/PB ratio 16-64, 6 days): 0.1 ppm
- Minimum Inhibitory Concentration, Compound Used Alone (Gliocladium virens; [3]): 74.7 ppm
- Minimum Inhibitory Concentration, Mixture (Gliocladium virens; Table 1, concentration of the component in SP+PB mixture, SP/PB ratio 1/10-1, 6-7 days): 21.3 ppm
- Minimum Inhibitory Concentration, Compound Used Alone (Gliocladium virens; [5]): 64.0 ppm
- Minimum Inhibitory Concentration, Mixture (Gliocladium virens; Table 2, concentration of the component in ZP+PB mixture, ZP/PB ratio 1-2, 7 days): 20.0 ppm
- Minimum Inhibitory Concentration, Compound Used Alone (Fusarium solani; [3]): 128.0 ppm
- Minimum Inhibitory Concentration, Mixture (Fusarium solani; [2]): 32.0 ppm
- Minimum Inhibitory Concentration, Compound Used Alone (Fusarium solani; [5]): 85.3 ppm
- Minimum Inhibitory Concentration, Mixture (Fusarium solani; [10]): 37.3 ppm
- Minimum Inhibitory Concentration, Compound Used Alone (Pseudomonas fluorescens; [6]): 10.7 ppm
- Minimum Inhibitory Concentration, Mixture (Pseudomonas fluorescens; Table 1, concentration of the component in SP+PB mixture, SP/PB ratio 3-10, 3 days): 1.2 ppm
- Minimum Inhibitory Concentration, Compound Used Alone (Pseudomonas fluorescens; [7]): 6.7 ppm
- Minimum Inhibitory Concentration, Mixture (Pseudomonas fluorescens; Table 2, concentration of the component in ZP+PB mixture, ZP/PB ratio 8-16, 6 days): 0.4 ppm
- Minimum Inhibitory Concentration, Compound Used Alone (Proteus mirabilis; [6]): > 2048.0 ppm
- Minimum Inhibitory Concentration, Mixture (Proteus mirabilis; Table 1, concentration of the component in SP+PB mixture, SP/PB ratio 1/20-1, 3 days): 288.0 ppm
- Minimum Inhibitory Concentration, Compound Used Alone (Proteus mirabilis; [7]): > 2048.0 ppm
- Minimum Inhibitory Concentration, Mixture (Proteus mirabilis; Table 2, concentration of the component in ZP+PB mixture, ZP/PB ratio 1/32, 6 days): 64.0 ppm
